pEC50, pIC50: −log10 of the molar value.
What was measured:
[1] = tested on: AsPC-1 (K-Ras G12D); test: Potency assay: pERK; assay type: cell-based, human; details: Homo sapiens, ASPC1, read-out: pERK EC50
Description: The purpose of this assay is to measure the ability of test compounds to inhibit K-Ras in cells. […] This procedure measures a decrease in cellular pERK in response to test compounds. The procedure described below in NCI-H358 cells is applicable to K-Ras G12C.
NCI-H358 cells were grown and maintained using media and procedures recommended by the ATCC. On the day prior to compound addition, cells were plated in 384-well cell culture plates (40 μl/well) and grown overnight in a 37° C., 5% CO2 incubator. Test compounds were prepared in 10, 3-fold dilutions in DMSO, with a high concentration of 10 mM. On the day of assay, 40 nL of test compound was added to each well of cell culture plate using an Echo550 liquid handler (LabCyte®). Concentrations of test compound were tested in duplicate. After compound addition, cells were incubated 4 hours at 37° C., 5% CO2. Following incubation, culture medium was removed and cells were washed once with phosphate buffered saline.
In some experiments, cellular pERK level was determined using the AlphaLISA SureFire Ultra p-ERK1/2 Assay Kit (PerkinElmer). Cells were lysed in 25 μL lysis buffer, with shaking at 600 RPM at room temperature. Lysate (10 μL) was transferred to a 384-well Opti-plate (PerkinElmer) and 5 μL acceptor mix was added. After a 2-hour incubation in the dark, 5 μL donor mix was added, plate was sealed, and incubated 2 hours at room temperature. Signal was read on an Envision plate reader (PerkinElmer) using standard AlphaLISA settings. Analysis of raw data was carried out in Excel (Microsoft) and Prism (GraphPad). Signal was plotted vs. the decadal logarithm of compound concentration, and IC50 was determined by fitting a 4-parameter sigmoidal concentration response model.
In other experiments, cellular pERK was determined by In-Cell Western. Following compound treatment, cells were washed twice with 200 μL tris buffered saline (TBS) and fixed for 15 minutes with 150 μL 4% paraformaldehyde in TBS. Fixed cells were washed 4 times for 5 minutes with TBS containing 0.1% Triton X-100 (TBST) and then blocked with 100 μL Odyssey blocking buffer (LI-COR) for 60 minutes at room temperature. Primary antibody (PERK, CST-4370, Cell Signaling Technology) was diluted 1:200 in blocking buffer, and 50 μL was added to each well and incubated overnight at 4° C. Cells were washed 4 times for 5 minutes with TBST. Secondary antibody (IR-800CW rabbit, LI-COR, diluted 1:800) and DNA stain DRAQ5 (LI-COR, diluted 1:2000) were added and incubated 1-2 hours at room temperature. Cells were washed 4 times for 5 minutes with TBST. Plates were scanned on a Li—COR Odyssey CLx Imager. Analysis of raw data was carried out in Excel (Microsoft) and Prism (GraphPad). Signal was plotted vs. the decadal logarithm of compound concentration, and IC50 was determined by fitting a 4-parameter sigmoidal concentration response model.

[2] = tested on: AsPC-1 (K-Ras G12D); test: CellTiter-Glo cell viability assay, AsPC-1; assay type: cell-based, human; details: Homo sapiens, ASPC1, 120 h, read-out: AsPC-1 Cell Viability IC50
Description: Note—The following protocol describes a procedure for monitoring cell viability of K-Ras mutant cancer cell lines in response to a compound of the invention. Other RAS isoforms may be employed, though the number of cells to be seeded will vary based on cell line used.
Test compounds (132.5 nL) were directly dispensed into the assay plates containing cells. […] On day 5, assay plates and their contents were equilibrated to room temperature for approximately 30 minutes. […] Luminescence was measured using the PerkinElmer Enspire. Data were normalized by the following: (Sample signal/Avg. DMSO)*100. The data were fit using a four-parameter logistic fit.

Structure (SMILES)	pEC50 [1]	pIC50 [2]
CCn1c(-c2cccnc2[C@H](C)OC)c2c3cc(ccc31)-c1cc(O)cc(c1)C[C@H](NC(=O)[C@H](C(C)C)N(C)C(=O)[C@@H](C)N(C)C(=O)[C@H]1CN1)C(=O)N1CCC[C@H](N1)C(=O)OCC(C)(C)C2 [Example 114]	> 5.30	5.00 to 6.00
CCn1c(-c2cccnc2[C@H](C)OC)c2c3cc(ccc31)-c1cc(O)cc(c1)C[C@H](NC(=O)[C@H](C(C)C)N(C)C(=O)CN(C)C(=O)[C@H]1N[C@H]1C1CC1)C(=O)N1CCC[C@H](N1)C(=O)OCC(C)(C)C2 [Example 134]	> 5.30	5.00 to 6.00
CCn1c(-c2cccnc2[C@H](C)OC)c2c3cc(ccc31)-c1cc(O)cc(c1)C[C@H](NC(=O)[C@H](C(C)C)N(C)C(=O)CNC(=O)[C@H]1CN1)C(=O)N1CCC[C@H](N1)C(=O)OCC(C)(C)C2 [Example 140]	> 5.30	5.00 to 6.00
CCn1c(-c2cccnc2[C@H](C)OC)c2c3cc(ccc31)-c1cc(O)cc(c1)C[C@H](NC(=O)[C@H](C(C)C)N(C)C(=O)CNC(=O)[C@@H]1CN1)C(=O)N1CCC[C@H](N1)C(=O)OCC(C)(C)C2 [Example 147]	> 5.30	5.00 to 6.00
CCn1c(-c2cccnc2[C@H](C)OC)c2c3cc(ccc31)-c1cc(O)cc(c1)C[C@H](NC(=O)[C@H](C(C)C)N(C)C(=O)[C@H]1CCCN1C(=O)[C@@H]1CN1)C(=O)N1CCC[C@H](N1)C(=O)OCC(C)(C)C2 [Example 151]	> 5.30	5.00 to 6.00
CCn1c(-c2cccnc2[C@H](C)OC)c2c3cc(ccc31)-c1cc(O)cc(c1)C[C@H](NC(=O)[C@H](C(C)C)N(C)C(=O)[C@H]1CCCN1C(=O)[C@H]1CN1)C(=O)N1CCC[C@H](N1)C(=O)OCC(C)(C)C2 [Example 152]	> 5.30	5.00 to 6.00
CCn1c(-c2cccnc2[C@H](C)OC)c2c3cc(ccc31)-c1cc(O)cc(c1)C[C@H](NC(=O)[C@H](C(C)C)N(C)C(=O)[C@H]1CC[C@@H](C)N1C(=O)[C@@H]1CN1)C(=O)N1CCC[C@H](N1)C(=O)OCC(C)(C)C2 [Example 153]	> 5.30	5.00 to 6.00
CCn1c(-c2cccnc2[C@H](C)OC)c2c3cc(ccc31)-c1cc(O)cc(c1)C[C@H](NC(=O)[C@H](C(C)C)N(C)C(=O)[C@H]1CC[C@@H](C)N1C(=O)[C@H]1CN1)C(=O)N1CCC[C@H](N1)C(=O)OCC(C)(C)C2 [Example 154]	> 5.30	5.00 to 6.00
CCn1c(-c2cccnc2[C@H](C)OC)c2c3cc(ccc31)-c1cc(O)cc(c1)C[C@H](NC(=O)[C@H](C(C)C)N(C)C(=O)CN(C)C(=O)[C@H]1CN1CCO)C(=O)N1CCC[C@H](N1)C(=O)OCC(C)(C)C2 (stereo partly drawn) [Example 161]	> 5.30	5.00 to 6.00
CCn1c(-c2cccnc2[C@H](C)OC)c2c3cc(ccc31)-c1cc(O)cc(c1)C[C@H](NC(=O)[C@H](C(C)C)N(C)C(=O)CN(C)C(=O)[C@@H]1CN1CCO)C(=O)N1CCC[C@H](N1)C(=O)OCC(C)(C)C2 (stereo partly drawn) [Example 162]	> 5.30	5.00 to 6.00
CCn1c(-c2cccnc2[C@H](C)OC)c2c3cc(ccc31)-c1cc(O)cc(c1)C[C@H](NC(=O)[C@H](C(C)C)N(C)C(=O)CN(C)C(=O)[C@H]1CN1CCCN1CCCC1=O)C(=O)N1CCC[C@H](N1)C(=O)OCC(C)(C)C2 (stereo partly drawn) [Example 268, (2R)—N-(2-(((2S)-1-(((6^3S,4S)-1^1-ethyl-25-hydroxy-1^2-(2-((S)-1-methoxyethyl)pyridin-3-yl)-10,10-dimethyl-5,7-dioxo-6^1,6^2,6^3,6^4,6^5,6^6-hexahydro-1^1H-8-oxa-1 (5,3)-indola-6 (1,3)-pyridazina-2 (1,3)-benzenacycloundecaphane-4-yl)amino)-3-methyl-1-oxobutan-2-yl) (methyl)amino)-2-oxoethyl)-N-methyl-1-(3-(2-oxopyrrolidin-1-yl)propyl) aziridine-2-carboxamide]	> 5.30	5.00 to 6.00
CCn1c(-c2cccnc2[C@H](C)OC)c2c3cc(ccc31)-c1cc(O)cc(c1)C[C@H](NC(=O)[C@H](C(C)C)N(C)C(=O)CN(C)C(=O)[C@@H]1CN1CC(=O)N(C)C)C(=O)N1CCC[C@H](N1)C(=O)OCC(C)(C)C2 (stereo partly drawn) [Example 271]	> 5.30	< 5.00
